In patent US9546159B2, “N-substituted 3,4-bis (catechol) pyrrole compounds, and the preparation and use thereof in the treatment of cancer” (Centre National De La Recherche Scientifique (CNRS), priority 2012, dated 2017):

What was measured:
Assay type in all cases: cell-based
U87 cells (glioblastoma) = assay: cell growth test (CellTiter-Blue Cell Viability Assay); details: Homo sapiens, U-87 MG, 72 hours of treatment, read-out: IC50 (concentration of compound inducing a 50% reduction of cell growth)
Experimental: (§1) The biological activity of compound (1) was studied in vitro on 3 different cancer cell lines: • HCT-116 (colorectal carcinoma) • U87 (glioblastoma) • K562 (myeloid leukaemia) and on 3 normal non-cancerous cell types: • HUVEC (human umbilical vascular endothelial cells) • NHDF (human dermal fibroblasts) • HFDPC (human hair follicle dermal papilla cells).
(§2) The cells selected for this study were incubated at 37° in the presence of compound (1) added in the culture medium at different concentrations and at different times.
(§3) The effect of compound (1) on HCT-116, U87 and K562 cell growth was evaluated using a cell growth test (CellTiter-Blue™ m Cell Viability Assay, Promega). The growth curves and the IC50 values (concentration of compound inducing a 50% reduction of cell growth) determined after 72 hours of cell treatment with compound (1) are presented in FIG. 1. They are 30 nm for HCT-116 cells, 45 nM for U87 cells and 70 nM for K562.

K562 (myeloid leukaemia) = assay: as above; details: Homo sapiens; K562, 72 hours of treatment; read-out: IC50 (concentration of compound inducing a 50% reduction of cell growth)
Experimental: as §1, §2, §3

[1] = tested on: HCT-116 cells (colorectal carcinoma); assay: as above; details: Homo sapiens, 72 hours of treatment, read-out: IC50 (concentration of compound inducing a 50% reduction of cell growth)
Experimental: as §1, §2, §3

[2] = tested on: caspases 3 and 7 in HCT-116 cells; assay: caspases 3 and 7 activity (Apo-ONE test); details: HCT-116, 24 hours, 5 nM to 75 nM
Experimental: The activity of caspases 3 and 7, marker enzymes of apoptosis, was measured using the Apo-ONE (Promega) test after treating HCT-116 cells with compound (1) at concentrations varying from 5 nM to 75 nM.

HCT-116 cells [3] = assay: counting live cells after trypan blue staining
Experimental: The effect of compound (1) on cell growth was described in more detail on the HCT-116 cell line. This study was conducted as a function of the concentration and exposure time of the cells to the molecule under test (24 hrs, 48 hrs and 72 hrs) by counting the number of live cells after excluding dead cells by means of trypan blue staining.
FIG. 2 represents the effect of compound (I) on the number and viability of HCT-116 cells as a function of the concentration thereof and the treatment time.

[4] = tested on: HFDPC (human hair follicle dermal papilla cells); assay: cell growth, normal cells; details: 72 hours of treatment
Experimental: as §1, §2, §3
(§4) In order to determine the specificity of action of compound (1) on cancer cells, we evaluated the effect thereof with respect to normal human HUVEC, NHDF and HFDPC cells and the HCT-116, U87 and K652 cancer cell annotations.

[5] = tested on: HUVEC cells (human umbilical vascular endothelial cells); assay: cell growth, normal cells; details: 72 hours of treatment
Experimental: as §1, §2, §3, §4

[6] = tested on: NHDF cells (human dermal fibroblasts); assay: cell growth, normal cells; details: 72 hours of treatment
Experimental: as §1, §2, §3, §4

[7] = tested on: Akt protein serine 473 phosphorylation, FOXO3, peroxiredoxin 1 in HCT-116 cells; assay: survival pathway PI3 kinase-Akt-Foxo Western Blot; details: HCT-116, 24 hours
Experimental: In view of the stoppage of the cell cycle in the G0/G1 phase associated with an autophagic response in the absence of apoptosis following treatment with compound (1), we studied the action of this compound on the survival pathway involving PI3 kinase-Akt-Foxo. This signalling pathway is very frequently found to be disrupted (by stimulation) in a large number of cancer cells and contributes to the survival thereof.
Indeed, HCT-116 cells were exposed for 24 hours to the action of compound (1) at concentrations varying from 5 nM to 100 nm.

HCT-116 cells [8] = assay: cell cycle flow cytometry analysis; details: HCT-116, 24 hours, 30 and 50 nM
Experimental: This effect is significant after 24 hours of exposure of the cells to compound (1) used at the 30 and 50 nM concentrations (FIG. 4).

normal human cells = assay: specificity of action: normal human cells versus cancer cells; details: in vitro, concentrations encompassing the IC50
Text: as §4
The IC50 values are thus up to 300 times higher for normal cells compared to those obtained for cancer cells.

[9] = tested on: intracellular H2O2 in HCT-116 cells; assay: intracellular H2O2 concentration (DCF-DA, flow cytometry)
Text: The protein peroxiredoxin is an enzyme having a peroxidase activity, controlling the intracellular hydrogen peroxide (H2O2) concentration. Therefore, we evaluated the effect of compound (1) on the intracellular H2O2 concentration, using DCF-DA (2′,7′-dichlorofluorescein diacetate, Sigma) as a marker of intracellular H2O2. Hydrogen peroxide is an intracellular second messenger. It regulates, according to the concentration thereof, numerous functions such as proliferation or apoptosis. A reduction of the concentration thereof is associated with a decrease in proliferation.

[10] = tested on: proteins p21 and p27 in HCT-116 cells; assay: Western Blot of proteins p21 and p27; details: HCT-116, 24 hours
Experimental: The gene of the protein p27 is described as being regulated by FOXO3, whereas that of the protein p21 is controlled by the p53 transcription factor, stimulated inter alia by oxidative stress. The HCT-116 cells were treated with compound (1) for 24 hours. The cell extracts were then analysed by Western Blot.

[11] = tested on: protein LC3-II in HCT-116 cells; assay: autophagy: Western Blot of LC3-II; details: HCT-116, 24 hours, 5 nM to 100 nm
Experimental: In the aim of determining whether the stoppage of the cell cycle induced by compound (1) induces an autophagic reaction, the HCT-116 cells were treated with compound (1) at different doses for 24 hours. The cell extracts then underwent Western Blot analysis in order to view the expression of the protein LC3-II. Indeed, the protein LC3 exists in the cell either in cytosolic form (LC3-I) or associated with phagosomes (LC3-II). The latter is the marker of the autophagic reaction.

HCT-116 cells [12] = assay: mitochondrial transmembrane potential (JC-1 probe, flow cytometry); details: HCT-116, 24 hours, 25 nM to 100 nM
Experimental: The study of the mitochondrial transmembrane potential, Δψm, was conducted by flow cytometry, using the JC-1 probe (MitoProbe™ JC-1 assay, Molecular Probes). JC-1 is a lipophilic […] compound which selectively penetrates the mitochondria, the colour whereof changes from green to red when the transmembrane potential increases.

O=[N+]([O-])c1cc(-c2cn(CCCN3CCCCCCCCCCCC3)cc2-c2cc(O)c(O)c([N+](=O)[O-])c2)cc(O)c1O [compound (1), 5,5′-(1-(3-(Azacyclotridecan-1-yl)propyl)-1H-pyrrole-3,4-diyl)bis(3-nitrobenzene-1,2-diol)]
IC50 (U87 cells (glioblastoma)): 0.045 µM
IC50 (K562 (myeloid leukaemia)): 0.07 µM
IC50 [1]: 0.03 µM
activity of caspases 3 and 7 [2]: lack of variations in the activity of these enzymes
nature of the action (cytostatic / cytotoxic) (HCT-116 cells [3]; HCT-116): cytostatic and not cytotoxic
reduction of the number of cells (HCT-116 cells [3]; HCT-116, 25 nM, 24 hours of treatment): 40%
cell viability (trypan blue) (HCT-116 cells [3]; HCT-116, 24, 48 and 72 hrs): lack of modification of cell viability
inhibition of the number of cells (HCT-116 cells [3]; HCT-116, from 48 hours, concentrations greater than the IC50): up to 80%
IC50 [4]: 10 µM
IC50 [5]: 2 µM
IC50 [6]: 5 µM
expression of the protein FOXO3 ([7]; 5 nM to 100 nm): stimulates the expression of the protein FOXO3
expression of the protein peroxiredoxin 1 ([7]; 5 nM to 100 nm): stimulates the expression of the protein peroxiredoxin 1
Akt protein serine 473 phosphorylation ([7]; from the 25 nm concentration): totally suppresses
effect on the cell cycle (HCT-116 cells [8]): blocks cell division in the G0/G1 phase
cytotoxicity with respect to normal human cells (normal human cells): does not exhibit any cytotoxicity
dose dependence of the effect on intracellular H2O2 ([9]; HCT-116): dose dependent
decrease of the intracellular H2O2 concentration ([9]; HCT-116, 50 nM, 18 hours of treatment): approximately 50%
expression of the protein p21 [10]: no significant effect
expression of protein p27 ([10]; 25 and 50 nM): increase in the expression of protein p27
expression of LC3-II [11]: increase in the expression of LC3-II
mitochondrial transmembrane potential Δψm (HCT-116 cells [12]): does not modify Δψm significantly
